Results: patent US10925858B2, “S-nitrosoglutathione (GSNO) and GSNO reductase inhibitors for use in therapy” (MUSC FOUNDATION FOR RESEARCH DEVELOPMENT, priority 2017, dated 2021)

Legend:
[1] = system: protein-associated S-nitrosothiols; test: Assay for protein-associated S-nitrosylation (biotin-switch) in hBMVECs; type: cell-based, human; conditions: various concentrations, incubated 2 hr
Experimental: Cell culture: Primary human brain microvascular endothelial cells (hBMVECs) were purchased from Angio-Proteomie (Cat #: cAP-0002, Atlanta, Ga.). The cells were cultured in cell culture flasks or plates precoated with Quick Coating Solution (Angio-Proteomie; Cat #: cAP-01) and maintained in Endothelial Growth Medium (Angio-Proteomie; Cat #: cAP-02) at 37° C. under 5% CO2/95% air. When the cells were almost confluent, the medium was replaced with endothelial basal medium (Angio-Proteomie; Cat #: cAP-03) containing 0.5% fetal bovine serum (FBS; Life Technologies, Grand Island, N.Y.) about 8-12 hours before the experiment. No institutional approval was required for this study. The study was not pre-registered.
Assay for protein-associated S-nitrosylation: Protein S-Nitrosylation was analyzed by using biotin-switch method as described in our previous reports (Kim et al., 2014; Prasad et al., 2007). hBMVECs were lysed in 250 mM HEPES, pH 7.7, 1 mM EDTA, 0.1 mM neocuproine, 1% Nonidet P-40, 150 mM NaCl, 1 mM phenylmethanesulfonylfluoride, 20 mM methyl methanethiosulfonate (MMTS), 80 μM carmustine, protease inhibitor mixture (Sigma-Aldrich), and mixed with an equal volume of 25 mM HEPES, pH 7.7, 0.1 mM EDTA, 10 μM neocuproine, 5% SDS, 20 mM MMTS and incubated at 50° C. for 20 min. […] Following acetone precipitation, biotinylated (S-nitrosylated) proteins were analyzed by Western analysis. […]

myelin = test: Myelin status in spinal cords of EAE mice (immunofluorescent staining for MBP, Western for MBP and PLP); type: in vivo, C57BL/6 mice; conditions: 1 mg/kg/day, N6022 vs FTY720
Experimental: Female C57BL/6 mice of 8-12 weeks of age, purchased from Jackson Laboratory, were provided with food and water ad libitum and were kept in pathogen free animal care facility of Medical University of South Carolina (MUSC) throughout the study. All procedures were conducted in accordance with accepted standards of humane care as approved by the Institutional Animal Care and Use Committee (Approved number: AR #1644). EAE was induced as described previously (Nath et al., 2009). Briefly, mice were immunized subcutaneously in the flank regions with MOG35-55 peptide (MOG; 200 μg; Peptide International) emulsified (1:1) in 100 ul complete Freund's adjuvant (CFA) on day 0 and day 7. Additionally, 300 ng of Pertussis toxin (Sigma-Aldrich, St. Louis, Mo.) was given on day 0 and day 2 by i.p. injection. […] Clinical signs of EAE were scored by examiners blinded to experimental treatments using the following scale: 0=no clinical signs of disease; 1=piloerection and sluggish; 2=limp tail (ataxia); 2.5=ataxia with partial hind limb paralysis; 3=full paralysis of hind limb; 3.5=full paralysis of hind limb with paralysis of one fore limb; 4=full paralysis of two limbs; 4.5=moribund stage; 5=death. […]
Tissue samples were embedded in paraffin block and sectioned transversely (5 μm-thick). […] For the quantitation of infiltrates, the digital images were analyzed by ImageJ (NIH, Bethesda, Md.). […]

SMILES	RhoA S-nitrosylation [1]	cellular levels of protein-associated S-nitrosothiols [1]	protection against myelin loss in the spinal cords (myelin)
N[C@@H](CCC(=O)N[C@@H](CSN=O)C(=O)NCC(=O)O)C(=O)O [GSNO, S-nitrosoglutathione]	increased	increased	–
Cc1cc(C(N)=O)ccc1-n1c(CCC(=O)O)ccc1-c1ccc(-n2ccnc2)cc1 [N6022, reference compound]	–	–	protects against the myelin loss in the spinal cords of EAE mice greater than FTY720 treatment
